Assay results from patent US8133909B2 (Hoffmann-La Roche Inc., priority 2008, dated 2012).
Structures can show the parent of a compound that is named as a salt.

Target: T1, human orexin-2 (hOX2) receptors (Homo sapiens, UniProt O43614)
T1 construct: expressed in transfected cells
T1 sequence (O43614 1-444): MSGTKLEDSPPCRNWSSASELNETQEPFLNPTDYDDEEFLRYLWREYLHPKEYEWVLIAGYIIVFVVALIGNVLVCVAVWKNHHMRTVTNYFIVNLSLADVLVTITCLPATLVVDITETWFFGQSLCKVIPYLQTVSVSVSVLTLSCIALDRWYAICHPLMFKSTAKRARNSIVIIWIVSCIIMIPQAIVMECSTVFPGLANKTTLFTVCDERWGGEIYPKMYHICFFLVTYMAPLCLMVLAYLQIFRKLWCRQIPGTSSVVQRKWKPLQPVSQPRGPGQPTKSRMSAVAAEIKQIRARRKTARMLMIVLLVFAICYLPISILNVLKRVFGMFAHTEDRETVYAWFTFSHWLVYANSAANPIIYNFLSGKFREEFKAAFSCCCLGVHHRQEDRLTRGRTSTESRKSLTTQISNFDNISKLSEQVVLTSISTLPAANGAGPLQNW
Assay: Intracellular Ca2+ mobilization assay (FLIPR), antagonism of orexin-A
Format: cell-based
Conditions: CHO(dHFr-) cells stably expressing hOX2; orexin-A at EC80 as agonist; antagonist applied 25 min before; Kb=IC50/(1+[A]/EC50); read-out: Kb (μM) OX2R (human)
Experimental: Intracellular Ca^2+ Mobilization Assay
The Chinese Hamster Ovary (dHFr—) mutant cell line stably expressing human orexin-1 (hOX1) or human orexin-2 (hOX2) receptors were maintained in Dulbecco's Modified Eagle Medium (1X) with GlutaMax™ 1, 4500 mg/L D-Glucose and Sodium Pyruvate (Catalog No. 31966-021, Invitrogen, Carlsbad, Calif.), 5% dialyzed fetal calf serum (Catalog No. 26400-044), 100 μg/ml penicillin and 100 μg/ml streptomycin. The cells were seeded at 5×10^4 cells/well in the poly-D-lysine treated, 96-well, black/clear-bottomed plates (Catalog No. BD356640, BD Biosciences, Palo Alto, Calif.). 24 h later, the cells were loaded for 1 h at 37° C. with 4 μM Flou-4 acetoxymethyl ester (Catalog No. F-14202, Molecular Probes, Eugene, Oreg.) in FLIPR buffer (1×HBSS, 20 mM HEPES, 2.5 mM Probenecid). Hanks' Balanced Salt Solution (HBSS) (10×) (catalog No. 14065-049) and HEPES (1M) (catalog No. 15630-056) were purchased from Invitrogen, Carlsbad, Calif. Probenecid (250 mM) (catalog No. P8761) was from Sigma, Buchs, Switzerland. The cells were washed five times with FLIPR buffer to remove excess dye and intracellular calcium mobilization, [Ca^2+]i were measured using a Fluorometric Imaging Plate Reader (FLIPR-96, Molecular Devices, Menlo Park, Calif.) as described previously (Malherbe et al., Mol. Pharmacol., 64, 823-832, 2003). Orexin A (catalog No. 1455, Toris Cookson Ltd, Bristol, UK) was used as agonist. Orexin A (50 mM stock solution in DMSO) was diluted in FLIPR buffer +0.1% BSA. The EC50 and EC80 values of orexin-A were measured daily from standard agonist concentration-response curves in CHO(dHFr—)—OX1R and —OX2R cell lines. All compounds were dissolved in 100% DMSO. Inhibition curves were determined by addition of 11 concentrations (0.0001-10 μM) of inhibitory compounds and using EC80 value of orexin-A as agonist (a concentration which gave 80% of max agonist response, determined daily). The antagonists were applied 25 min (incubation at 37° C.) before the application of the agonist. Responses were measured as peak increase in fluorescence minus basal, normalized to the maximal stimulatory effect induced by EC80 value of orexin-A or orexin- B. Inhibition curves were fitted according to the Hill equation: y=100/(1+(x/IC50)^nH), where nH=slope factor using Excel-fit 4 software (Microsoft). Kb values were calculated according to the following equation Kb=IC50/(1+[A]/EC50) where A is the concentration of agonist added which is very close to agonist EC80 value, and IC50 and EC50 values were derived from the antagonist inhibition and orexin-A or B agonist curves, respectively.

Compound | Kb [µM]
Cc1ccc(N(CCc2ccc(C(F)(F)F)nc2)C(=O)[C@@H](N)c2ccccc2)cc1C [Example 1, (S)-2-Amino-N-(3,4-dimethyl-phenyl)-2-phenyl-N-[2-(6-trifluoromethyl-pyridin-3-yl)-ethyl]-acetamide] | 0.0007
Cc1ccc(N(CCc2ccc(C(F)(F)F)nc2)C(=O)[C@@H](O)c2ccccc2)cc1C [Example 2, (S)—N-(3,4-Dimethyl-phenyl)-2-hydroxy-2-phenyl-N-[2-(6-trifluoromethyl-pyridin-3-yl)-ethyl]-acetamide] | 0.0025
Cc1ccc(N(CCc2ccc(C(F)(F)F)nc2)C(=O)[C@H](O)c2ccccc2)cc1C [Example 3, (R)—N-(3,4-Dimethyl-phenyl)-2-hydroxy-2-phenyl-N-[2-(6-trifluoromethyl-pyridin-3-yl)-ethyl]-acetamide] | 0.0159
COc1ccc(N(CCc2ccc(C(F)(F)F)nc2)C(=O)[C@@H](NC(=O)[C@@H](N)c2ccccc2)c2ccccc2)cc1OC [Example 4, (S)-2-((S)-2-Amino-2-phenyl-acetylamino)-N-(3,4-dimethoxy-phenyl)-2-phenyl-N-[2(6-trifluoromethyl-pyridin-3-yl)-ethyl]-acetamide] | 0.0017
COc1ccc(N(CCc2ccc(C(F)(F)F)nc2)C(=O)[C@@H](N)c2ccccc2)cc1OC [Example 5, (S)-2-Amino-N-(3,4-dimethoxy-phenyl)-2-phenyl-N-[2-(6-trifluoromethyl-pyridin-3-yl)-ethyl]-acetamide] | 0.0005
Cc1ccc(N(CCc2ccc(C(F)(F)F)nc2)C(=O)[C@@H](O)c2ccc(F)cc2)cc1C [Example 7, (S)—N-(3,4-Dimethyl-phenyl)-2-(4-fluoro-phenyl)-2-hydroxy-N-[2-(6-trifluoromethyl-pyridin-3-yl)-ethyl]-acetamide] | 0.0005
Cc1ccc(N(CCc2ccc(C(F)(F)F)nc2)C(=O)[C@@H](NC2(CN)COC2)c2ccccc2)cc1C [Example 8, (S)-2-(3-Aminomethyl-oxetan-3-ylamino)-N-(3,4-dimethyl-phenyl)-2-phenyl-N-[2-(6-trifluoromethyl-pyridin-3-yl)-ethyl]acetamide] | 0.0263
N[C@H](C(=O)N(CCc1ccc(C(F)(F)F)nc1)c1ccc2c(c1)CCCC2)c1ccccc1 [Example 9, (S)-2-Amino-2-phenyl-N-(5,6,7,8-tetrahydro-naphthalen-2-yl)-N-[2-(6-trifluoromethyl-pyridin-3-yl)-ethyl]-acetamide] | 0.0006
Cc1ccc(N(CCc2ccc(C(F)(F)F)nc2)C(=O)[C@@H](N)c2ccc(F)cc2)cc1C [Example 10, (S)-2-Amino-N-(3,4-dimethyl-phenyl)-2-(4-fluoro-phenyl)-N-[2-(6-trifluoromethyl-pyridin-3-yl)-ethyl]-acetamide] | 0.0014
O=C([C@@H](O)c1ccccc1)N(CCc1ccc(C(F)(F)F)nc1)c1ccc2c(c1)CCCC2 [Example 12, (S)-2-Hydroxy-2-phenyl-N-(5,6,7,8-tetrahydro-naphthalen-2-yl)-N-[2-(6-trifluoromethyl-pyridin-3-yl)-ethyl]-acetamide] | 0.0015
Cc1ccc(N(CCc2ccc(C(F)(F)F)nc2)C(=O)[C@@H](O)c2ccccc2)cc1 [Example 15, (S)-2-Hydroxy-2-phenyl-N-p-tolyl-N-[2-(6-trifluoromethyl-pyridin-3-yl)-ethyl]-acetamide] | 0.0241
Cc1ccc(N(CCc2ccc(C(F)(F)F)nc2)C(=O)Cc2ccccc2)cc1C [Example 17, N-(3,4-Dimethyl-phenyl)-2-phenyl-N-[2-(6-trifluoromethyl-pyridin-3-yl)-ethyl]-acetamide] | 0.0362
COc1cc(N(CCc2ccc(C(F)(F)F)nc2)C(=O)[C@@H](O)c2ccccc2)ccc1C [Example 19, (S)-2-Hydroxy-N-(3-methoxy-4-methyl-phenyl)-2-phenyl-N-[2-(6-trifluoromethyl-pyridin-3-yl)-ethyl]-acetamide] | 0.0109
Cc1ccc(N(CCc2ccc(C(F)(F)F)nc2)C(=O)C(=O)c2ccccc2)cc1C [Example 20, N-(3,4-Dimethyl-phenyl)-2-oxo-2-phenyl-N-[2-(6-trifluoromethyl-pyridin-3-yl)-ethyl]-acetamide] | 0.0916
Cc1ccc(CCN(C(=O)[C@@H](N)c2ccccc2)c2ccc(C)c(C)c2)nc1 [Example 21, (S)-2-Amino-N-(3,4-dimethyl-phenyl)-N-[2-(5-methyl-pyridin-2-yl)-ethyl]-2-phenyl-acetamide hydrochloride] | 0.0047
Cc1ccc(N(CCc2ccc(C(F)(F)F)nc2)C(=O)[C@@H](C)c2ccccc2)cc1C [Example 24, (S)—N-(3,4-Dimethyl-phenyl)-2-phenyl-N-[2-(6-trifluoromethyl-pyridin-3-yl)-ethyl]-propionamide] | 0.0839
Cc1ccc(N(CCc2ccc(C(F)(F)F)cn2)C(=O)[C@@H](N)c2ccccc2)cc1C [Example 25, (S)-2-Amino-N-(3,4-dimethyl-phenyl)-2-phenyl-N-[2-(5-trifluoromethyl-pyridin-2-yl)-ethyl]-acetamide hydrochloride] | 0.0008
Cc1ccc(N(CCc2ccc(C(F)(F)F)cn2)C(=O)[C@@H](O)c2ccccc2)cc1C [Example 26, (S)—N-(3,4-Dimethyl-phenyl)-2-hydroxy-2-phenyl-N-[2-(5-trifluoromethyl-pyridin-2-yl)-ethyl]-acetamide] | 0.0038
CCn1nc(C)c2cc(N(CCc3ccc(C(F)(F)F)nc3)C(=O)[C@@H](O)c3ccccc3)ccc21 [Example 48, (S)—N-(1-Ethyl-3-methyl-1H-indazol-5-yl)-2-hydroxy-2-phenyl-N-[2-(6-trifluoromethyl-pyridin-3-yl)-ethyl]-acetamide] | 0.07
O=C([C@@H](O)c1ccccc1)N(CCc1ccc(C(F)(F)F)nc1)c1cnc2ccccc2c1 [Example 49] | 0.0361
O=C([C@@H](O)c1ccccc1)N(CCc1ccc(C(F)(F)F)nc1)c1ccc2c(c1)OCCO2 [Example 55, (S)—N-(2,3-Dihydro-benzo[1,4]dioxin-6-yl)-2-hydroxy-2-phenyl-N-[2-(6-trifluoromethyl-pyridin-3-yl)-ethyl]-acetamide] | 0.0142
COc1cccc(N(CCc2ccc(C(F)(F)F)nc2)C(=O)[C@@H](O)c2ccccc2)c1 [Example 56, (S)-2-Hydroxy-N-(3-methoxy-phenyl)-2-phenyl-N-[2-(6-trifluoromethyl-pyridin-3-yl)-ethyl]-acetamide] | 0.0176
Cc1ccc(N(CCc2ccc(C(F)(F)F)nc2)C(=O)[C@@H](NC2COC2)c2ccccc2)cc1C [Example 57, (S)—N-(3,4-Dimethyl-phenyl)-2-(oxetan-3-ylamino)-2-phenyl-N-[2-(6-trifluoromethyl-pyridin-3-yl)-ethyl]-acetamide] | 0.0016
O=C([C@@H](O)c1ccc(F)cc1)N(CCc1ccc(C(F)(F)F)nc1)c1ccc2c(c1)CCCC2 [Example 60, (S)-2-(4-Fluoro-phenyl)-2-hydroxy-N-(5,6,7,8-tetrahydro-naphthalen-2-yl)-N-[2-(6-trifluoromethyl-pyridin-3-yl)-ethyl]-acetamide] | 0.0053
COc1cc(N(CCc2ccc(C(F)(F)F)nc2)C(=O)[C@@H](O)c2ccc(F)cc2)ccc1C [Example 61, (S)-2-(4-Fluoro-phenyl)-2-hydroxy-N-(3-methoxy-4-methyl-phenyl)-N-[2-(6-trifluoromethyl-pyridin-3-yl)-ethyl]-acetamide] | 0.0026
O=C([C@@H](O)c1ccccc1)N(CCc1ccc(C(F)(F)F)nc1)c1ccc2c(c1)CCCO2 [Example 62] | 0.011
